The values below come from patent publication US11202766B1, “Pharmaceutical compositions including hydrocodone bitartrate and guaifenesin” (priority 2019, dated 2021).

The data set in a line: clinical. Particulars: for Tmax / half-life: Mean; for Kel of Hydrocodone bitartrate, Mean: oral; for half-life: t1/2 of Hydrocodone bitartrate. The protocol:
A randomized, open-label, balanced, two-treatment, two-period, two sequence, single-dose, two-way crossover oral food effect study was conducted comparing administration of rapidly dissolving pharmaceutical composition tablets including 5 mg hydrocodone bitartrate and 400 mg guaifenesin per tablet to healthy subjects under fed and fasting conditions. The objective of this study was to evaluate the effect of food (high fat, high calorie breakfast) on the rate and extent of absorption of a single oral dose of the rapidly dissolving pharmaceutical composition including 5 mg hydrocodone bitartrate and 400 mg guaifenesin.
Healthy adult participants were randomized into Treatment A or Treatment B during two study periods (Period 1 and Period 2). Participants received one tablet of the rapidly dissolving pharmaceutical composition (including 5 mg hydrocodone bitartrate and 400 mg guaifenesin per tablet) in each study period with a seven-day (washout) interval between study periods. Participants randomized to Treatment A consumed a high fat, high calorie breakfast (1000 kcal) 30 minutes prior to dosing. Participants randomized to Treatment B fasted overnight and at the time of dosing. Participants were housed at the investigative site not less than 10.5 hours pre-dose until 24 hours post-dose in each period.
Twenty-one blood samples were collected from each subject during each study period. The venous blood samples (9 mL each) were drawn at pre-dose [(0.00) within 1.00 hour prior to dosing] and at 0.16, 0.33, 0.50, 0.66, 0.83, 1.00, 1.25, 1.50, 2.00, 3.00, 4.00, 5.00, 6.00, 7.00, 8.00, 10.00, 12.00, 16.00, 20.00 and 24.00 hours post-dose. After the collection of blood samples from all the subjects at each time point, samples were centrifuged at 4000 RPM for 10 minutes at 5° C. All plasma samples were then transferred into three polypropylene tubes. The plasma samples were stored at −20±10° C. for a maximum period of 12.0 hours.
Pharmacokinetic parameters were measured for fed and fasting conditions of subjects for both hydrocodone bitartrate and guaifenesin. Plasma samples were assayed for hydrocodone and guaifenesin using an API 4000® LC-MS/MS System, commercially available from AB Sciex LP, Concord, Ontario, Canada. During analysis, standard and quality control samples were distributed throughout each batch of study samples analyzed. No access to the randomization schedule was available until all of the analysis was completed. All the values below the limit of quantification (LOQ) were set to “zero” for all pharmacokinetic and statistical calculations. Any missing sample was reported as “M”. Incurred sample reanalysis was performed as per the current version of ICON SOP BC06, “Incurred Sample Reanalysis Procedures”.
The pharmacokinetic parameters for hydrocodone and guaifenesin in plasma were computed using SAS™ v9.3 software, commercially available from SAS Institute, Inc., Cary, N.C., USA.
The plasma pharmacokinetic parameters were determined for Cmax, Tmax, AUC0→t, and AUC0→∞. The Cmax and Tmax values were directly determined from the plasma concentration versus time curves. The AUC0→t was calculated by the linear trapezoidal rule. The AUC0→∞ was estimated by summing the area from AUC0→t and […]. The half life, t1/2, was calculated using the formula t1/2=ln 2/Kel, wherein Kel is the slope of the terminal portion of the plasma concentration versus time curve, obtained by linear regression. Natural Logarithmic transformation was done before data analysis for Cmax, AUC0→t, and AUC0→∞. Tmax, t1/2, and Kel were analyzed without transformation.
A paired t-test was used to assess effects between the two arms of the study. Intra-subject variability in terms of the overall percentage coefficient of variation (% CV) were also evaluated for each PK parameter. […] All values below the limit of quantification (LOQ) were set to “zero” for all pharmacokinetic and statistical calculations.

The mark [1] stands for this setting: fed:fasting, ln-transformed data.

For the compound `COc1ccccc1OCC(O)CO` (centres unmarked) [Guaifenesin, guaifenesin], the “t1/2 of Guaifenesin, Mean” value (human, in vivo, po) was 1.05 h. In addition, under “human, in vivo, po, Tmax of Guaifenesin”, the Tmax is 0.64 h.

Consider `COc1ccc2c3c1O[C@H]1C(=O)CC[C@H]4[C@@H](C2)N(C)CC[C@]314.O=C(O)C(O)C(O)C(=O)O` [Hydrocodone bitartrate, hydrocodone bitartrate], for which the “Kel of Hydrocodone bitartrate, Mean” value (Fasting Condition (Treatment B), one tablet 5 mg hydrocodone bitartrate/400 mg guaifenesin) stood at 0.14 h⁻¹. In addition, for the setting “Fed Condition (Treatment A), one tablet 5 mg hydrocodone bitartrate/400 mg guaifenesin”, the “Kel of Hydrocodone bitartrate, Mean” value turned out to be 0.14 h⁻¹. Further, under “fed:fasting”, the “Ratio Between Treatment A: Treatment B, Kel of Hydrocodone Bitartrate, Mean” value worked out at 0.98; the “Ratio Between Treatment A: Treatment B, Tmax of Hydrocodone Bitartrate, Mean” value is on record as 1.51; the “Ratio Between Treatment A: Treatment B, t1/2 of Hydrocodone Bitartrate, Mean” value came to 1.11. Under setting [1], the “Ratio Between Treatment A: Treatment B, *AUC0→t of Hydrocodone Bitartrate, Mean” value stood at 1.02; the “Ratio Between Treatment A: Treatment B, *AUC0→∞ of Hydrocodone Bitartrate, Mean” value came to 1.02; the “Ratio Between Treatment A: Treatment B, *Cmax of Hydrocodone Bitartrate, Mean” value is 1.03. Further, where the note is “human, in vivo, po, Tmax of Hydrocodone bitartrate, Fasting Condition (Treatment B), one tablet 5 mg hydrocodone bitartrate/400 mg guaifenesin”, the Tmax came out at 1.61 h. Under “human, in vivo, po, Tmax of Hydrocodone bitartrate, Fed Condition (Treatment A), one tablet 5 mg hydrocodone bitartrate/400 mg guaifenesin”, the Tmax came out at 2.08 h. Also, the half-life (human, in vivo, po, Fasting Condition (Treatment B), one tablet 5 mg hydrocodone bitartrate/400 mg guaifenesin) is 4.95 h. For the same compound, the half-life (human, in vivo, po, Fed Condition (Treatment A), one tablet 5 mg hydrocodone bitartrate/400 mg guaifenesin) was 5.29 h.
